In US20210386835A1, “AN ANTIMICROBIAL COMPOSITION FOR SELECTIVELY INHIBITING GROWTH OF P. ACNES BACTERIA” (priority 2018, published 2021):

Tested on: P. acnes 6919 strain (ATCC, USA)
Experiment: Contact kill assay against P. acnes (2 h exposure, colony count)
Format: cell-based, Propionibacterium acnes
Details: 10 mM HEPES pH 7.0, 37° C., relative to control
Method: P. acnes 6919 strain (ATCC, USA) was grown under anaerobic conditions on RCM agar from Glycerol stocks. A loopful of culture from glycerol stock was streaked on freshly prepared RCM agar plate and incubated at 37° C. anaerobically for 4-5 days. After the incubation, the culture was taken from the plate and re-suspended in saline and then centrifuged at 8000 rpm for 6 minutes at 4° C. The pellet obtained was re-suspended in 10 mM HEPES buffer (pH 7.0). An OD600 culture of 0.5 was made in HEPES buffer. 1:10 dilution of 0.5 OD adjusted culture was used for contact kill assay corresponding to 10^6 cells per ml. […] The contact assay was performed in 10 mM HEPES buffer (pH 7.0). For control, 181 μl of 1:10 diluted […] adjusted culture was mixed with 19 μl of HEPES buffer to make a volume of 200 μl. […] The mixture was mixed and incubated at 37° C. for 2 hours in shaker incubator. Post incubation, the samples were neutralised by serial 1:10 dilution in D/E broth followed by saline dilutions. 100 μl of each dilution was plated on fresh RCM agar plates and allowed to dry. The plates were sealed with parafilm and incubated at 37° C. in anaerobic chamber for 4-5 days. Post incubation, colonies were counted and titer was estimated as log CFU/ml. The relative log reductions of individual and combination treatment were calculated with respect to control and the data is presented in the table below: […]

Cc1ccc(C(C)C)c(O)c1 [Thymol, thymol] gave a Relative log reduction (Thymol 0.01%) of 0.33 and a Relative log reduction (Thymol 0.02%) of 2.02.

B1: Endolysin: recombinant P. acnes phage endolysin cloned from Propionibacterium phage 29399B_C, 284 amino acids, expressed in E. coli (protein)
chain: MRYIPAAHHSAGSNHPVNRVVIHATCPDVGFPSASRKGRAVSTANYFASPSSGGSAHYVCDIGETVQCLSEGTIGWHAPPNPHSLGIEICADGGSHASFRVPGHAYTREQWLDPRVWPAVEKAAILCRRLCDKYNVPKRKLSAADLKAGRRGVCGHVDVTDAWHQSDHDDPGPWFPWDRFMAVVNGHNESGELTVADVKALHDQIKQLSAQLAGSVNKLHHDVGVVQVQNGDLGKRVDALSWVKNPVTGKLWRTKDALWSVWYYVLECRSRIDRLESAVNGLKKLEHHHHHH
modifications: His6 tag; Polypeptide sequence of Endolysin with C-terminal Histidine tag (x6)
With B1 the Relative log reduction (Endolysin 3 μM) was 1.17.
